Test results taken from paper PMC5766581, “NF-κB inducing kinase is a therapeutic target for systemic lupus erythematosus” (Nature Communications, 2018).

What was measured:
Assay in all cases: SelectScreen kinase panel
Assay type in all cases: biochemical
Srm = biological target: T1, Srm (Homo sapiens, UniProt Q9H3Y6)
T1 construct: purchased Invitrogen / ThermoFisher SelectScreen
Method: (§1) The ability of NIK to catalyze the hydrolysis of adenosine-5′-triphosphate (ATP) was monitored using the Transcreener ADP (adenosine-5′-diphosphate) assay (Bell Brook Labs, Fitchburg, WI). Purified human NIK kinase domain (a.a. 340–694) (0.5 nM) or mouse NIK kinase domain (a.a. 329–675) (1 nM) derived from a baculovirus-infected insect cell expression system was incubated with test compounds for 0.5–2 h in 50 mM HEPES buffer (pH 7.2) containing 10 mM MgCl2, 2 mM dithiothreitol, 10 μM ATP, 0.01% Triton X-100, 0.1% gamma-globulins from bovine blood, 1% dimethylsulfoxide (DMSO), 7 μg/mL ADP antibody and 5 nM ADP-MR121 633 tracer. Reactions were quenched by the addition of 20 mM EDTA and 0.01% Brij 35. The tracer bound to the antibody was displaced by the ADP generated during the NIK reaction, which caused a decrease in fluorescence polarization that was measured by laser excitation at 633 nm with a Fluorescence Correlation Spectroscopy Plus reader (Evotec AG). Equilibrium dissociation constant (Ki) values for NIK inhibitors are calculated from plots of activity vs. inhibitor concentration using Morrison’s quadratic equation that accounts for the potential of tight binding, and by also applying the conversion factor that accounted for competitive inhibition and the concentration of substrate used in the assay relative to its Michaelis constant (Km). The Ki values with hPKD1 (PKCμ) were determined using the same assay conditions as for NIK. Ki measurements for hKHS1 and hLRRK2, as well as broad kinase selectivity profiling for SMI1, were carried out by Invitrogen using their SelectScreen kinase assay panel (ThermoFisher Scientific, Madison, WI). The vendor offered two types of kinase activity assays, a peptide phosphorylation assay (Z′-LYTE) and an ADP quantitation assay (Adapta), as well as one type of kinase ATP site competitive binding assay (LanthaScreen). See vendor web site for technology and protocol details for each specific kinase assay.
(§2) The average % Inhibition of each kinase is reported (Supplementary Table 1).

PLK1 = biological target: T2, PLK1 (Homo sapiens, UniProt P53350)
T2 construct: purchased Invitrogen / ThermoFisher SelectScreen
Method: as §1, §2

Ros = biological target: T3, Ros (Homo sapiens, UniProt P08922)
T3 construct: purchased Invitrogen / ThermoFisher SelectScreen
Method: as §1, §2

Flt1 = biological target: T4, Flt1 (Homo sapiens, UniProt P17948)
T4 construct: purchased Invitrogen / ThermoFisher SelectScreen
Method: as §1, §2

EGFR (T790M,L858R) = biological target: T5, EGFR (T790M,L858R) (Homo sapiens, UniProt P00533, L858R/T790M)
T5 construct: purchased Invitrogen / ThermoFisher SelectScreen
T5 sequence (P00533 25-1210 T790M/L858R): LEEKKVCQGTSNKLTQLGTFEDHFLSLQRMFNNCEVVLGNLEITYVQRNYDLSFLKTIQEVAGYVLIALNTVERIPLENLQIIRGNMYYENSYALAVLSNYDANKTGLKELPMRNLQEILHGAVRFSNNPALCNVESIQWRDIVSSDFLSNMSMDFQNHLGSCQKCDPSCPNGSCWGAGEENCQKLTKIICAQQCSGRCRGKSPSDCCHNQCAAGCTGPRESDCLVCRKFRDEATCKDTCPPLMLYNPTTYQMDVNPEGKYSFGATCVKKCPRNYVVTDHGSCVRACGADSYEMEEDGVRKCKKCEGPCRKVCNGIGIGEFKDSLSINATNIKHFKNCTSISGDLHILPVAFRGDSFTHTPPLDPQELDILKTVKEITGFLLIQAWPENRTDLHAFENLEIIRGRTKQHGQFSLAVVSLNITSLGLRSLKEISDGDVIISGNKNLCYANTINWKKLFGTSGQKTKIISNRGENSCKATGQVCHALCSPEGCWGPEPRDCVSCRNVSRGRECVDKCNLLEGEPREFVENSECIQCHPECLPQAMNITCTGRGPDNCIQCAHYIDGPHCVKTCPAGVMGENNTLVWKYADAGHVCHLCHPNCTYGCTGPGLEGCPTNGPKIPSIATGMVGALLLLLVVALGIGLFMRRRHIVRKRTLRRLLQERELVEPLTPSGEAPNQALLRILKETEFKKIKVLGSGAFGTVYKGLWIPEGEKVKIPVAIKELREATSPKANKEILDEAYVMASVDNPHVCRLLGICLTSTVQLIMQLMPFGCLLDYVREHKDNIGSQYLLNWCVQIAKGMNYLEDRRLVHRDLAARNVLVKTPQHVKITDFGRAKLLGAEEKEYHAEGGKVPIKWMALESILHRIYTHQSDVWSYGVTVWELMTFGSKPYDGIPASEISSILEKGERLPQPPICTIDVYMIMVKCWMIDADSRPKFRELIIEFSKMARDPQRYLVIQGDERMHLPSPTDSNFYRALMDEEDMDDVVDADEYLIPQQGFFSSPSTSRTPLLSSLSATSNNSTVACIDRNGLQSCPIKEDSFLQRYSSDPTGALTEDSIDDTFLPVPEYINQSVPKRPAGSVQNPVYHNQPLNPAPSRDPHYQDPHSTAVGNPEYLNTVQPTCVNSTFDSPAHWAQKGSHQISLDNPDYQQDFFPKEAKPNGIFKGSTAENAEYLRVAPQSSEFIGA
Method: as §1, §2

DCAMKL2 = biological target: T6, DCAMKL2 (Homo sapiens, UniProt Q8N568)
T6 construct: purchased Invitrogen / ThermoFisher SelectScreen
Method: as §1, §2

Axl = biological target: T7, Axl (Homo sapiens, UniProt P30530)
T7 construct: purchased Invitrogen / ThermoFisher SelectScreen
Method: as §1, §2

DYRK4 = biological target: T8, DYRK4 (Homo sapiens, UniProt Q9NR20)
T8 construct: purchased Invitrogen / ThermoFisher SelectScreen
Method: as §1, §2

CLK3 = biological target: T9, CLK3 (Homo sapiens, UniProt P49761)
T9 construct: purchased Invitrogen / ThermoFisher SelectScreen
Method: as §1, §2

AKT1 = biological target: T10, AKT1 (Homo sapiens, UniProt P31749)
T10 construct: purchased Invitrogen / ThermoFisher SelectScreen
Method: as §1, §2

LTK = biological target: T11, LTK (Homo sapiens, UniProt P29376)
T11 construct: purchased Invitrogen / ThermoFisher SelectScreen
T11 sequence (P29376 17-864): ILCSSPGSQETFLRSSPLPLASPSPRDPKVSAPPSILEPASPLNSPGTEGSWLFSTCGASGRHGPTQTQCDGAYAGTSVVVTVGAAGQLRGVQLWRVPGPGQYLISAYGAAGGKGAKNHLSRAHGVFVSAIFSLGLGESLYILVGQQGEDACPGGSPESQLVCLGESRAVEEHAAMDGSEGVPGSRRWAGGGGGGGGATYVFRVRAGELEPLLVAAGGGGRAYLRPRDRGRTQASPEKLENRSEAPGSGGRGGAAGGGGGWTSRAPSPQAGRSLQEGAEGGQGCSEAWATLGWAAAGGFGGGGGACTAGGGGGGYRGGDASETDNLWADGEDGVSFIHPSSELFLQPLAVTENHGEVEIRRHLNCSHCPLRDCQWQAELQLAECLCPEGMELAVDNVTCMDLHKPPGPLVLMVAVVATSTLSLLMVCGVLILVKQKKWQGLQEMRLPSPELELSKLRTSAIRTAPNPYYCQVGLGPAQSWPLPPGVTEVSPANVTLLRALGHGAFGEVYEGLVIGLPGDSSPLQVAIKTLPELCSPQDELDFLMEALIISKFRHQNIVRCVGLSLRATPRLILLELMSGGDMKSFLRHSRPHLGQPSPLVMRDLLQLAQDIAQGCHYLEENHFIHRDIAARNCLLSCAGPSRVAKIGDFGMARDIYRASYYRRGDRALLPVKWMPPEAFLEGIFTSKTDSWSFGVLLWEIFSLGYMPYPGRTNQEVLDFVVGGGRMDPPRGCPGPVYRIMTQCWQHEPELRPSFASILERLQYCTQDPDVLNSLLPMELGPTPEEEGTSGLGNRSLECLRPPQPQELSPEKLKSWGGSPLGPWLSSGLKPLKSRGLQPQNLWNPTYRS
Method: as §1, §2

IKK_beta = biological target: T12, IKK_beta (Homo sapiens, UniProt O14920)
T12 construct: purchased Invitrogen / ThermoFisher SelectScreen
Method: as §1, §2

MuSK = biological target: T13, MuSK (Homo sapiens, UniProt O15146)
T13 construct: purchased Invitrogen / ThermoFisher SelectScreen
T13 sequence (O15146 24-869): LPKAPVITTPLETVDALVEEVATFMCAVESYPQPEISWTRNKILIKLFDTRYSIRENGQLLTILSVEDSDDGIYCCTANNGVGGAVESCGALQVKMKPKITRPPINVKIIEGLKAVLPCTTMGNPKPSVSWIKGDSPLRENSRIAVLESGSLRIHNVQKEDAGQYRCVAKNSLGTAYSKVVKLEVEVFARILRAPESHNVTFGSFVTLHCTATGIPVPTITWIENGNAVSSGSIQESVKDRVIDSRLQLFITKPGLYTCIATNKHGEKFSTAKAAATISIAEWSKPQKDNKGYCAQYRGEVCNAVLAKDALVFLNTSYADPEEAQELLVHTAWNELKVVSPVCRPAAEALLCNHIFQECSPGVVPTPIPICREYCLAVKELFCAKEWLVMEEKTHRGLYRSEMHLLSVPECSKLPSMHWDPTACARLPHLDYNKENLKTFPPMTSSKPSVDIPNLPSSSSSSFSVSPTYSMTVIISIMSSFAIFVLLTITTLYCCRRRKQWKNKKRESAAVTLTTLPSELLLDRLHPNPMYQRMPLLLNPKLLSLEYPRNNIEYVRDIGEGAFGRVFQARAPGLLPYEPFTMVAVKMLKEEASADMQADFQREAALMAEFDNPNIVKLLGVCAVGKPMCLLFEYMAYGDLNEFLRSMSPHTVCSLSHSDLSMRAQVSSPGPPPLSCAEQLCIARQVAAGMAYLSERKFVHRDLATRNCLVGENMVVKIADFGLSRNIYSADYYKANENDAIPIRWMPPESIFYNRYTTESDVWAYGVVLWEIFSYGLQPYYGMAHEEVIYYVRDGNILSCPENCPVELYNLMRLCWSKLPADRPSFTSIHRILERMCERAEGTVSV
Method: as §1, §2

MARK3 = biological target: T14, MARK3 (Homo sapiens, UniProt P27448)
T14 construct: purchased Invitrogen / ThermoFisher SelectScreen
Method: as §1, §2

MRCK_alpha = biological target: T15, MRCK_alpha (Homo sapiens, UniProt Q5VT25)
T15 construct: purchased Invitrogen / ThermoFisher SelectScreen
Method: as §1, §2

PKA = biological target: T16, PKA (Homo sapiens, UniProt P17612)
T16 construct: purchased Invitrogen / ThermoFisher SelectScreen
Method: as §1, §2

CLK1 = biological target: T17, CLK1 (Homo sapiens, UniProt P49759)
T17 construct: purchased Invitrogen / ThermoFisher SelectScreen
Method: as §1, §2

TrkA = biological target: T18, TrkA (Homo sapiens, UniProt P04629)
T18 construct: purchased Invitrogen / ThermoFisher SelectScreen
Method: as §1, §2

CDK9/cyclinT1 = biological target: T19, CDK9/cyclinT1 (Homo sapiens, UniProt P50750)
T19 construct: purchased Invitrogen / ThermoFisher SelectScreen
Method: as §1, §2

ERK2 = biological target: T20, ERK2 (Homo sapiens, UniProt P28482)
T20 construct: purchased Invitrogen / ThermoFisher SelectScreen
T20 sequence (P28482 whole entry): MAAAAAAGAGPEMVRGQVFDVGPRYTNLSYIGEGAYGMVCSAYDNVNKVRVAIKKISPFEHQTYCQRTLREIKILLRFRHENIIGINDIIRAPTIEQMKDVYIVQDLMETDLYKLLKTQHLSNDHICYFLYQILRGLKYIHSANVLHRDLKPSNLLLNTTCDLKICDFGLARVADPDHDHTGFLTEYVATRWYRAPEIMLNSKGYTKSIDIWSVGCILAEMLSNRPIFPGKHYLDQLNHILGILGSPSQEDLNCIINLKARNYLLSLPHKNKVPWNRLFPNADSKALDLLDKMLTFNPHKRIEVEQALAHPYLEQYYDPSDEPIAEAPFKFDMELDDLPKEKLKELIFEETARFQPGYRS
Method: as §1, §2

PKD1 = biological target: T21, PKD1 (Homo sapiens, UniProt Q15139); details: NIK SMI1 1 µM; ATP Km app
T21 construct: purchased Invitrogen / ThermoFisher SelectScreen
T21 sequence (Q15139 whole entry): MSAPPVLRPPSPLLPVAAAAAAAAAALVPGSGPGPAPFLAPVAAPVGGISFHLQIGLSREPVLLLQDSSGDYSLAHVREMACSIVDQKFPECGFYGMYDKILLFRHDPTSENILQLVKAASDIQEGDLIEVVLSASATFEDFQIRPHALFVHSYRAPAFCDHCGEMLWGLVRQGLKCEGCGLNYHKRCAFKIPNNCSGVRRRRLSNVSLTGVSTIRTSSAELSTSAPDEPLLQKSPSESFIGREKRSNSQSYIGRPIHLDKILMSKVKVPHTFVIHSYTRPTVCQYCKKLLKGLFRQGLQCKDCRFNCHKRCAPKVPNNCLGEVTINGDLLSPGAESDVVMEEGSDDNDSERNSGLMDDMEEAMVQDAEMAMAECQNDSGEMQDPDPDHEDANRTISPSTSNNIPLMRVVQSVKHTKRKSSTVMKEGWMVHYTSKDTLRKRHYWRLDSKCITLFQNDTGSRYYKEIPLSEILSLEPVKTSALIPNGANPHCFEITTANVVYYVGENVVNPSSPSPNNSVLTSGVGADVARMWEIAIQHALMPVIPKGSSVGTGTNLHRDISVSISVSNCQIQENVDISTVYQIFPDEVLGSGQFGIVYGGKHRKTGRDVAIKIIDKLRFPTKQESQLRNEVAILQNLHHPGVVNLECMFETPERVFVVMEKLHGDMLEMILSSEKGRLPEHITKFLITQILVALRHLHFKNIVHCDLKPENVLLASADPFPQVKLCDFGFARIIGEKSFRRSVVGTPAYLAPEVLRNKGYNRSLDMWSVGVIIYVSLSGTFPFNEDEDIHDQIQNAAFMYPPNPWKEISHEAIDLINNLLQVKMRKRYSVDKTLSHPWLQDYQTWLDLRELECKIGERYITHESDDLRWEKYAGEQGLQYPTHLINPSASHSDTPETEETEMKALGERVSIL
Method: as §1, §2

P38_gamma = biological target: T22, P38_gamma (Homo sapiens, UniProt P53778)
T22 construct: purchased Invitrogen / ThermoFisher SelectScreen
T22 sequence (P53778 whole entry): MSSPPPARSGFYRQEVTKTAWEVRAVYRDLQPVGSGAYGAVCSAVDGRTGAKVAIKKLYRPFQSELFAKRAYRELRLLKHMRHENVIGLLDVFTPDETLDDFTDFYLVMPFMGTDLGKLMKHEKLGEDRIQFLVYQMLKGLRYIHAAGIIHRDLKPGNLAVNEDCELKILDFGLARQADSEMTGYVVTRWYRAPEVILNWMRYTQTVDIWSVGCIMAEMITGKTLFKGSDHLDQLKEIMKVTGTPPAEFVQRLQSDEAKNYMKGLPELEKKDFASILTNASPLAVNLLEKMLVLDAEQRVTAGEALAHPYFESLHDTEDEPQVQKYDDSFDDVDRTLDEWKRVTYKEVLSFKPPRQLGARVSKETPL
Method: as §1, §2

CK1_epsilon1 = biological target: T23, CK1_epsilon1 (Homo sapiens, UniProt P49674)
T23 construct: purchased Invitrogen / ThermoFisher SelectScreen
Method: as §1, §2

PKD2 = biological target: T24, PKD2 (Homo sapiens, UniProt Q9BZL6)
T24 construct: purchased Invitrogen / ThermoFisher SelectScreen
Method: as §1, §2

EphA8 = biological target: T25, EphA8 (Homo sapiens, UniProt P29322)
T25 construct: purchased Invitrogen / ThermoFisher SelectScreen
Method: as §1, §2

GRK2 = biological target: T26, GRK2 (Homo sapiens, UniProt P25098)
T26 construct: purchased Invitrogen / ThermoFisher SelectScreen
Method: as §1, §2

PKD_delta = biological target: T27, PKD_delta (Homo sapiens, UniProt Q05655)
T27 construct: purchased Invitrogen / ThermoFisher SelectScreen
Method: as §1, §2

TrkB = biological target: T28, TrkB (Homo sapiens, UniProt Q16620)
T28 construct: purchased Invitrogen / ThermoFisher SelectScreen
Method: as §1, §2

Frk = biological target: T29, Frk (Homo sapiens, UniProt P42685)
T29 construct: purchased Invitrogen / ThermoFisher SelectScreen
Method: as §1, §2

AKT2 = biological target: T30, AKT2 (Homo sapiens, UniProt P31751)
T30 construct: purchased Invitrogen / ThermoFisher SelectScreen
Method: as §1, §2

IRAK4 = biological target: T31, IRAK4 (Homo sapiens, UniProt Q9NWZ3)
T31 construct: purchased Invitrogen / ThermoFisher SelectScreen
Method: as §1, §2

Lyn = biological target: T32, Lyn (Homo sapiens, UniProt P07948)
T32 construct: purchased Invitrogen / ThermoFisher SelectScreen
T32 sequence (P07948 whole entry): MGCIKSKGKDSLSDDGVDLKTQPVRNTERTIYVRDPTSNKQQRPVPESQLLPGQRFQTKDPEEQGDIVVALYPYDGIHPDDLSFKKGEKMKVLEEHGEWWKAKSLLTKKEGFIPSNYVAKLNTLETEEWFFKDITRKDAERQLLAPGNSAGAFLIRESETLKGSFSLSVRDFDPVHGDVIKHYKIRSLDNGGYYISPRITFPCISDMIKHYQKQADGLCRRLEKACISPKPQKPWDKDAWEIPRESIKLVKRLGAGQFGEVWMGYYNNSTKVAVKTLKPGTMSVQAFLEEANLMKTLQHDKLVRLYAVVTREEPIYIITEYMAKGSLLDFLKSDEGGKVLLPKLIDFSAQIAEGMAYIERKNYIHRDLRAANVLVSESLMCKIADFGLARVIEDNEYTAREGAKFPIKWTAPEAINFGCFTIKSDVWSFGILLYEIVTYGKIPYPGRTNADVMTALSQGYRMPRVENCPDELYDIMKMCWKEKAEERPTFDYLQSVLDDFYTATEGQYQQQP
Method: as §1, §2

**Q.** Which results are given for COc1cc(C(N)=O)nc(-c2cccc(C#C[C@]3(O)CCN(C)C3=O)c2)c1 [NIK SMI1]?
**A.** inhibition at 1 µM (Srm): 12%; inhibition at 1 µM (PLK1): 1.5%; inhibition at 1 µM (Ros): 12.5%; inhibition at 1 µM (Flt1): 7%; inhibition at 1 µM (EGFR (T790M,L858R)): 9.5%; inhibition at 1 µM (DCAMKL2): 6.5%; inhibition at 1 µM (Axl): 9.3%; inhibition at 1 µM (DYRK4): 5.5%; inhibition at 1 µM (CLK3): 14.5%; inhibition at 1 µM (AKT1): 28.5%; inhibition at 1 µM (LTK): -1%; inhibition at 1 µM (IKK_beta): 4.5%; inhibition at 1 µM (MuSK): 6%; inhibition at 1 µM (MARK3): 7.5%; inhibition at 1 µM (MRCK_alpha): 0.5%; inhibition at 1 µM (PKA): -3%; inhibition at 1 µM (CLK1): 4.5%; inhibition at 1 µM (TrkA): 2.5%; inhibition at 1 µM (CDK9/cyclinT1): 15.3%; inhibition at 1 µM (ERK2): 5.5%; % Inhibition (PKD1): 79%; inhibition at 1 µM (PKD1): > 75%; inhibition at 1 µM (P38_gamma): 14%; inhibition at 1 µM (CK1_epsilon1): 6.5%; inhibition at 1 µM (PKD2): 0%; inhibition at 1 µM (EphA8): -3.5%; inhibition at 1 µM (GRK2): 4.5%; inhibition at 1 µM (PKD_delta): 1.5%; inhibition at 1 µM (TrkB): -3.5%; inhibition at 1 µM (Frk): 18%; inhibition at 1 µM (AKT2): 13%; inhibition at 1 µM (IRAK4): -1.5%; inhibition at 1 µM (Lyn): 2.5%
